# Laboratory results reported in patent US6987111B2 (Alkermes Controlled Therapeutics, II, priority 2003, dated 2006).
# Assay: Pharmacokinetic evaluation in rats following single subcutaneous doses
# Type: in vivo
# Details: male Sprague-Dawley rats, single SC injection of 40 mg in 0.75 mL aqueous diluent, plasma 2 h to 14 d
# Experimental: Species and Strain: Sprague-Dawley rats. Male; 450+/−50 grams.
# Study Groups: 4 Groups. 12 subjects
# Route of Injection: Subcutaneous (SC) injection into the interscapular region. Injection Vehicle: Aqueous Diluent: Water, 3% CMC low viscosity, 0.1% Tween 20, in 0.9% NaCl Dose Volumes: Dose suspensions were formulated as follows: • Group A: 20 mg powder in 0.75 mL Diluent • Group B: 40 mg microparticles in 0.75 mL Diluent • Group C: 20 mg powder in 0.75 mL Diluent • Group D: 50 mg powder in 0.75 mL Diluent Blood Collection: Blood samples were collected via a lateral tail vein after anesthesia with Halothane. A syringe without an anticoagulant was used for the blood collection, then the whole blood was transferred to tubes containing K2 EDTA and mixing beads (Microtainer®; MFG# BD365974). The blood samples were processed (the tubes are inverted 15–20 times and centrifuged for 2 minutes at >14,000 g's) to separate plasma. The plasma samples prepared in this manner were transferred to labeled plain tubes (Microtainer®; MFG# BD5962) and stored frozen at <−70° C. Blood Volumes: At least 250 μL blood for each time point during the first 24 hours and 400 μL for each time point thereafter.
substance,measurement,value
haloperidol pamoate [pamoate salt],extended release profile (plasma concentrations over time),good to excellent extended release profiles
